Columns and labels:
[1] = 100 kPa, Liquid, Cone and plate viscometry
[2] = xn = mol fraction of the nth substance listed; conditions: 100 kPa, Liquid; for viscosity: Cone and plate viscometry; for mass density: Vibrating tube method

CC[P+](CC)(CC)COCCOC.O=S(=O)([N-]S(=O)(=O)C(F)(F)F)C(F)(F)F
[1]
Conditions | viscosity [mPa·s]
278.15 K | 84
283.15 K | 65
288.15 K | 51

CCCCCCCCCCCCCC[P+](CCCCCC)(CCCCCC)CCCCCC.O=S(=O)([N-]S(=O)(=O)C(F)(F)F)C(F)(F)F + CCCCCC[n+]1ccn(C)c1.O=S(=O)([N-]S(=O)(=O)C(F)(F)F)C(F)(F)F
viscosity [mPa·s], [2]
Conditions | 278.15 K | 283.15 K | 288.15 K | 293.15 K | 298.15 K | 303.15 K | 308.15 K | 313.15 K | 318.15 K | 323.15 K
x1 = 0.2 | 390 | 280 | 205 | 153 | 118 | 92 | 74 | 60 | – | –
x1 = 0.398 | 652 | 459 | 329 | 242 | 183 | 141 | 111 | 89 | 72 | 60
x1 = 0.596 | 873 | 611 | 434 | 316 | 236 | 180 | 140 | 111 | 90 | 73
x1 = 0.748 | 1019 | 706 | 500 | 362 | 270 | 204 | 158 | 124 | 100 | 81
x1 = 0.903 | 1114 | 774 | 547 | 396 | 293 | 221 | 171 | 134 | 107 | 86

CCCC[n+]1cccn1C.O=S(=O)([N-]S(=O)(=O)C(F)(F)F)C(F)(F)F [1-butyl-2-methylpyrazolium bis(trifluoromethylsulfonyl)imide] + CCCCCCSC(N(C)C)=[N+](C)C.O=S(=O)([N-]S(=O)(=O)C(F)(F)F)C(F)(F)F
mass density [kg/m3], [2]
Conditions | x2 = 0.251 | x2 = 0.502 | x2 = 0.748
283.15 K | 1431.2 | 1400.4 | 1375.8
288.15 K | 1426.6 | 1395.7 | 1371.4
293.15 K | 1421.9 | 1391.4 | 1366.9
295.15 K | 1420.1 | 1389.9 | 1365.1
298.15 K | 1417.3 | 1387.4 | 1362.4
303.15 K | 1412.7 | 1382 | 1357.9
308.15 K | 1408.1 | 1377.6 | 1353.5
313.15 K | 1403.5 | 1373.2 | 1349
318.15 K | 1398.9 | 1368.8 | 1344.6
323.15 K | 1394.3 | 1364.7 | 1340.2
328.15 K | 1389.7 | 1360.4 | 1335.8
333.15 K | 1385.2 | 1356 | 1331.4
338.15 K | 1380.6 | 1351.7 | 1327
343.15 K | 1376.1 | 1347.3 | 1322.6
348.15 K | 1371.6 | 1342.8 | 1318.3
353.15 K | 1367.1 | 1338.4 | 1313.9

CCCCCCn1cc[n+](C)c1C.O=[N+]([O-])c1cn[n-]c1 [1-hexyl-2,3-dimethylimidazolium 4-nitropyrazolide] + CCCCCCCC[P+](CC)(CC)CC.O=S(=O)([N-]S(=O)(=O)C(F)(F)F)C(F)(F)F
viscosity [mPa·s], [2]
Conditions | 278.15 K | 283.15 K | 288.15 K | 293.15 K | 298.15 K | 303.15 K | 308.15 K | 313.15 K | 318.15 K | 323.15 K
x1 = 0.101 | 401 | 284 | 204 | 151 | 115 | 90 | 72 | 57 | – | –
x1 = 0.299 | 620 | 421 | 293 | 211 | 156 | 120 | 93 | 74 | 60 | –
x1 = 0.499 | 992 | 636 | 423 | 292 | 209 | 154 | 118 | 91 | 72 | 59
x1 = 0.701 | 2252 | 1345 | 836 | 543 | 369 | 259 | 188 | 140 | 107 | 84
x1 = 0.899 | 6554 | 3416 | 1886 | 1108 | 689 | 450 | 307 | 216 | 157 | 119

CCCCCCn1cc[n+](C)c1.O=[N+]([O-])c1cn[n-]c1 [1-hexyl-3-methylimidazolium 4-nitropyrazolide] + CCCCCCCC[P+](CC)(CC)CC.O=S(=O)([N-]S(=O)(=O)C(F)(F)F)C(F)(F)F
viscosity [mPa·s], [2]
Conditions | 278.15 K | 283.15 K | 288.15 K | 293.15 K | 298.15 K | 303.15 K | 308.15 K | 313.15 K | 318.15 K | 323.15 K
x1 = 0.1 | 402 | 284 | 205 | 152 | 116 | 90 | 72 | 58 | – | –
x1 = 0.299 | 470 | 325 | 230 | 168 | 127 | 98 | 77 | 62 | 51 | –
x1 = 0.499 | 639 | 428 | 294 | 209 | 154 | 116 | 90 | 71 | 57 | –
x1 = 0.701 | 1045 | 660 | 432 | 295 | 209 | 154 | 116 | 90 | 71 | 57
x1 = 0.9 | 2181 | 1262 | 765 | 488 | 326 | 227 | 164 | 122 | 93 | 74

CCCCCCCCCC[P+](CC)(CC)CC.O=[N+]([O-])c1cn[n-]c1 [decyltriethylphosphonium 4-nitropyrazolide] + CC[P+](CC)(CC)COCCOC.O=S(=O)([N-]S(=O)(=O)C(F)(F)F)C(F)(F)F
viscosity [mPa·s], [2]
Conditions | 278.15 K | 283.15 K | 288.15 K | 293.15 K | 298.15 K | 303.15 K | 308.15 K | 313.15 K | 318.15 K | 323.15 K
x1 = 0.1 | 103 | 79 | 62 | 49 | – | – | – | – | – | –
x1 = 0.25 | 160 | 120 | 91 | 72 | 57 | – | – | – | – | –
x1 = 0.499 | 334 | 239 | 174 | 131 | 101 | 79 | 64 | 52 | – | –
x1 = 0.75 | 716 | 486 | 337 | 241 | 178 | 135 | 104 | 82 | 66 | 55
x1 = 0.9 | 1198 | 788 | 531 | 370 | 265 | 195 | 149 | 115 | 91 | 73

CCCCCCC[P+](CC)(CC)CC.O=[N+]([O-])c1cn[n-]c1 [triethylheptylphosphonium 4-nitropyrazolide] + CC[P+](CC)(CC)COCCOC.O=S(=O)([N-]S(=O)(=O)C(F)(F)F)C(F)(F)F
viscosity [mPa·s], [2]
Conditions | 278.15 K | 283.15 K | 288.15 K | 293.15 K | 298.15 K | 303.15 K | 308.15 K | 313.15 K | 318.15 K | 323.15 K
x1 = 0.101 | 103 | 80 | 62 | 50 | – | – | – | – | – | –
x1 = 0.248 | 135 | 101 | 78 | 61 | 50 | – | – | – | – | –
x1 = 0.5 | 234 | 170 | 126 | 96 | 75 | 59 | – | – | – | –
x1 = 0.75 | 474 | 328 | 231 | 168 | 126 | 97 | 76 | 61 | 50 | –
x1 = 0.901 | 761 | 510 | 350 | 249 | 182 | 137 | 105 | 84 | 66 | 54

CCCCCCCCCCCCCC[P+](CCCCCC)(CCCCCC)CCCCCC.O=[N+]([O-])c1cn[n-]c1 [trihexyl(tetradecyl)phosphonium 4-nitropyrazolide] + CCCCCC[n+]1ccn(C)c1.O=S(=O)([N-]S(=O)(=O)C(F)(F)F)C(F)(F)F
viscosity [mPa·s], [2]
Conditions | 278.15 K | 283.15 K | 288.15 K | 293.15 K | 298.15 K | 303.15 K | 308.15 K | 313.15 K | 318.15 K | 323.15 K
x1 = 0.099 | 338 | 241 | 175 | 132 | 101 | 80 | 65 | 52 | – | –
x1 = 0.2 | 528 | 367 | 261 | 191 | 144 | 111 | 88 | 70 | 57 | –
x1 = 0.3 | 831 | 565 | 393 | 282 | 208 | 158 | 122 | 97 | 78 | 64
x1 = 0.501 | 1594 | 1055 | 715 | 499 | 357 | 264 | 199 | 153 | 120 | 96
x1 = 0.695 | 2474 | 1600 | 1061 | 726 | 512 | 371 | 276 | 209 | 162 | 128
x1 = 0.797 | 2704 | 1750 | 1158 | 788 | 554 | 400 | 296 | 222 | 171 | 134
x1 = 0.898 | 3071 | 1971 | 1297 | 880 | 614 | 441 | 325 | 244 | 187 | 146

— the NIST ThermoML archive (doi:10.1021/acs.jced.7b00221)
